The source of these data is patent publication US8691528B2, “Cell penetrating peptide” (Mitsubishi Tanabe Pharma Corporation, priority 2005, dated 2014).

The test system of the test is CHO cells. The test can be described thus: Test of translocation of fluorescence-labeled peptides into CHO cells (FACS and confocal microscopic analysis). The format is cell-based. Conditions: for contribution of the alanine-substituted amino acid to the intracellular translocation: comprehensive alanine substitution on the basis of KSH1-1. Here is the method: Each peptide solution, adjusted to 1 mM, was diluted with a medium to three levels, 100 μM, 50 μM, and 25 μM, and added to cells. Three kinds of cells were used: CHO cells, HeLa cells, and Jurkat cells. After each peptide solution was added, the cells were incubated for 1 hour. After the cells were washed with PBS three times, 100 μL of 0.25% trypsin-1 mM EDTA solution was added, and trypsinization was performed at room temperature for 5 minutes. After 400 μL of PBS (10% FCS) was added to stop the trypsinization, the cells were washed with 1 mL of HBSS three times. After the washing, the cells were suspended in 500 μL of PBS (10% FCS) and subjected to flowcytometry (hereinafter, FACS) analysis using FACS Calibur (Becton Dickinson).
Each peptide was synthesized, fluorescently labeled, purified and dissolved in the same manner as Example 1-2, a test of translocation into CHO cells was performed, and an evaluation was performed by confocal microscopic analysis and FACS. FACS analysis was performed in the same manner as Example 1-3. For the KSH1 peptide and modified PTD sequences, i.e., KSH1-1 to KSH1-9 peptides (SEQ ID NOS:1 to 9 in the sequence listing), fluorescence intensities determined by FACS analysis are shown in FIG. 6. The peptide addition concentrations were 50 μM, 25 μM, 12.5 μM and 6.5 μM.
To determine which amino acids are important to the intracellular translocation, comprehensive alanine substitution was performed on the basis of KSH1-1 to design KSH1-11 (SEQ ID NO:11 in the sequence listing) to KSH1-23 (SEQ ID NO:22 in the sequence listing) and KSH1-35 (SEQ ID NO:32 in the sequence listing) (FIG. 7). Each peptide was synthesized, fluorescently labeled, purified and dissolved in the same manner as Example 1-2, a test of translocation into CHO cells was performed, and an evaluation was performed by confocal microscopic analysis and FACS. FACS analysis was performed in the same manner as Example 1-3. For KSH1 and modified PTD sequences, i.e., KSH11-11 to 23 and KSH1-35, fluorescence intensities determined by FACS analysis are shown in FIG. 8. The peptide addition concentrations were 50 μM, 25 μM, 12.5 μM and 6.5 μM.
Each peptide was synthesized, fluorescently labeled, purified and dissolved in the same manner as Example 1-2, a test of translocation into CHO cells was performed, and an evaluation was performed by confocal microscopic analysis and FACS analysis. FACS analysis was performed in the same manner as Example 1-3. For KSH1 and modified PTD sequences, i.e., KSH11-24 to 1-26 and KSH1-28 to 1-30, fluorescence intensities determined by FACS analysis are shown in FIG. 10. The peptide addition concentrations were 50 μM, 25 μM, 12.5 μM and 6.5 μM.
Each peptide was synthesized, fluorescently labeled, purified and dissolved in the same manner as Example 1-2, a test of translocation into CHO cells was performed, and an evaluation was performed by confocal microscopic analysis and FACS analysis. FACS analysis was performed in the same manner as Example 1-3. For KSH1 and modified PTD sequences, i.e., KSH1-27, KSH1-33, KSH1-34 and KSH1-36, fluorescence intensities determined by FACS analysis are shown in FIG. 12. The peptide addition concentrations were 50 μM, 25 μM, 12.5 μM and 6.5 μM.
Each peptide was synthesized, fluorescently labeled, purified and dissolved in the same manner as Example 1-2, and an intracellular translocation test in CHO cells was performed by FACS analysis. Used for positive control were a PTD sequence derived from HIV TAT ([…] in the sequence listing) and the KSH1 peptide; used for negative control was a peptide sequence lacking intracellular transferability (SEQ ID NO:57 in the sequence listing).

Where [1] appears, read: 50 μM, 25 μM, 12.5 μM and 6.5 μM.

“Also recorded” adds a separate entry of the source.

“KSH1-25: two tryptophans substituted with phenylalanine (RLFMRFYSPTTRRYG; Designed peptide to act as PTD(Protein Transduction Domain))”: under setting [1], the “intracellular translocation compared with KSH1-1 (in words)” value was “nearly the same as KSH1-1”.
“KSH1-23: alanine substitution form of KSH1-1 (RLWMRWYSPTTRRAG; Designed peptide to act as PTD(Protein Transduction Domain))”: the “contribution of the alanine-substituted amino acid to the intracellular translocation” value (“contribution” for short) was “minor contribution”.
“KSH1-11: KSH1-1 with the 1st arginine substituted with alanine (ALWMRWYSPTTRRYG; Designed peptide to act as PTD(Protein Transduction Domain))”: the “contribution” value is “minor contribution”. For the same substance, the “intracellular translocation compared with KSH1-1 (in words)” value under setting [1] is given as “did not decrease a lot”.
For the substance “KSH1-4: modified KSH1 with three tryptophans uniformly arranged on the wheel structure (KLWMRWWSPTTRRYG; Designed peptide to act as PTD(Protein Transduction Domain))”, under setting [1], the “intracellular translocation compared with KSH1 (in words)” value was “did not change”.
In the case of “KSH1-29: two tryptophans substituted with valine (RLVMRVYSPTTRRYG; Designed peptide to act as PTD(Protein Transduction Domain))”, the “intracellular translocation compared with KSH1-1 (in words)” value under setting [1] is “decreased slightly”.
For “KSH1-22: alanine substitution form of KSH1-1 (an arginine substituted) (RLWMRWYSPTTARYG; Designed peptide to act as PTD(Protein Transduction Domain))”, the “intracellular translocation compared with KSH1-1 (in words)” value under setting [1] is “decreased”.
Take “KSH1-34: 14th tyrosine in the vicinity of the 3rd tryptophan substituted with arginine (RLWMRWYSPTTRARG; Designed peptide to act as PTD(Protein Transduction Domain))”: the “intracellular translocation compared with KSH1-1 (in words)” value under setting [1] was “decreased considerably”.
Consider “KSH1-3: KSH1 with the 13th arginine substituted with alanine (KLWMRWYSPTTRAYG; Designed peptide to act as PTD(Protein Transduction Domain))”, for which the “intracellular translocation compared with KSH1 (in words)” value under setting [1] is recorded as “decreased remarkably; also recorded: became observable very little”. Further, the “concentration at which intracellular translocation was detected” value (detected only at this concentration) stood at 50 µM.
Turning to “KSH1-19: alanine substitution form of KSH1-1 (RLWMRWYSGTTRRYG; Designed peptide to act as PTD(Protein Transduction Domain))”, the “contribution” value is “minor contribution”.
Regarding “KSH1-15: alanine substitution form of KSH1-1 (an arginine substituted) (RLWMAWYSPTTRRYG; Designed peptide to act as PTD(Protein Transduction Domain))”, the “intracellular translocation compared with KSH1-1 (in words)” value under setting [1] is “decreased”.
On to “KSH1-6: KSH1 with the two tryptophans both substituted with alanine (KLAMRAYSPTTRRYG; Designed peptide to act as PTD(Protein Transduction Domain))”, for which the “intracellular translocation compared with KSH1 (in words)” value under setting [1] is “no longer observable at all”.
As to “KSH1-24: two tryptophans substituted with leucine (RLLMRLYSPTTRRYG; Designed peptide to act as PTD(Protein Transduction Domain))”, the “intracellular translocation compared with KSH1-1 (in words)” value under setting [1] is on record as “decreased”.
On to “KSH1-2: KSH1 with proline substituted with alanine (KLWMRWYSATTRRYG; Designed peptide to act as PTD(Protein Transduction Domain))”, for which the “intracellular translocation compared with KSH1 (in words)” value under setting [1] is “no influence on the intracellular transferability was observed”.
For “KSH1-26: two tryptophans substituted with isoleucine (RLIMRIYSPTTRRYG; Designed peptide to act as PTD(Protein Transduction Domain))”, the “intracellular translocation compared with KSH1-1 (in words)” value under setting [1] is “nearly the same as KSH1-1”.
“KSH1-17: KSH1-1 with the 7th tyrosine substituted with alanine (RLWMRWASPTTRRYG; Designed peptide to act as PTD(Protein Transduction Domain))”: the “intracellular translocation compared with KSH1-1 (in words)” value under setting [1] is recorded as “almost no intracellular translocation was observed”.
Turning to “KSH1-36: the reversed-chain peptide of KSH1 (GYRRTTPSYWRMWLR; Designed peptide to act as PTD(Protein Transduction Domain))”, the “intracellular translocation compared with KSH1 (in words)” value by setting is: (at high concentrations) “accentuated intracellular translocation”; (at low concentrations) “tended to decrease”.
For “KSH1-30: two tryptophans substituted with tyrosine (RLYMRYYSPTTRRYG; Designed peptide to act as PTD(Protein Transduction Domain))”, the “intracellular translocation compared with KSH1-1 (in words)” value under setting [1] is recorded as “good intracellular translocation was exhibited; also recorded: good results”.
On to “KSH1-35: alanine substitution form of KSH1-1 (RLWMRWYSPTTRRYA; Designed peptide to act as PTD(Protein Transduction Domain))”, for which the “contribution” value was “minor contribution”.
For the substance “KSH1-27: serine and threonine all substituted with alanine (RLWMRWYAPAARRYG; Designed peptide to act as PTD(Protein Transduction Domain))”, under setting [1], the “intracellular translocation compared with KSH1-1 (in words)” value is “decreased slightly”. For the setting “at low concentrations”, the “translocation compared with KSH1-1 (in words)” value is “nearly the same”.
